Measured values: article PMC10610545, “Preclinical Evaluation of an Imidazole-Linked Heterocycle for Alzheimer’s Disease” (Pharmaceutics, 2023)

System: 5XFAD mice
Assay: Object location test (OLT) in 5XFAD mice
Assay type: in vivo, mouse
Details: 2 mg/Kg in drinking water, 4 weeks, vs 5XFAD Control
Experimental: Four-month-old female and male Wt and 5XFAD mice (n = 32) were used to carry out cognitive and molecular analyses. […] The animals had free access to food and water and were kept under standard temperature conditions (22 ± 2 °C) and 12 h/12 h light/dark cycles (300 lx/0 lx). […] After 4 weeks of treatment, cognitive tests, including short- and long-term memory and OLT, were performed to study the effects of treatment on learning and memory. Weight and water consumption were controlled each week, and the LSL33 concentration was adjusted accordingly to reach the optimal dose until euthanasia.
The OLT evaluated the spontaneous tendency of rodents to spend more time exploring a novel object location than a familiar object location and recognizing when an object has been relocated. OLT was performed using a white plywood apparatus (50 × 50 × 25 cm), in which three walls were white and one was black. On the first day, animals were just habituated to the empty open-field arena for 10 min. On the second day, two objects were placed in front of the black wall, equidistant from each other and the wall. The objects were 10 cm high and identical. […] Trials were recorded using a camera mounted above the open field area, and the total exploration time was determined by scoring TN and TO. DI was calculated, defined as (TN−TO)/(TN+TO). […]

SMILES: Cl.c1ccc2sc(-c3ncc[nH]3)cc2c1 [LSL33, 2-(Benzo[b]thiophene-2-yl)-1H-imidazole hydrochloride]
- OLT discrimination index (DI): increase in the discrimination index (DI)
